Experiments:
[1] = 2,2-diphenyl-1-picrylhydrazyl (DPPH) assay; settings: DPPH in ethanol, 515 nm, 25° C.
Procedure: The unpaired electron results in a strong absorption band at 515 nm, and the solution has a dark-violet colour. In the presence of a free-radical scavenger, the electron is paired, the absorption disappears, and the decoloration proceeds stoichiometrically taking into account the electrons taken up. The absorbance is measured in a photometer. The anti-free-radical property of the substance to be tested is determined by measuring the concentration at which 50% of the 2,2-diphenyl-1-picrylhydrazyl employed has reacted with the free-radical scavenger. This concentration is expressed as EC50, a value which should be regarded as a property of the substance under the given measurement conditions. The substance investigated is compared with a standard (for example tocopherol). The EC50 value here is a measure of the capacity of the respective compound to scavenge free radicals. The lower the EC50 value, the higher the capacity to scavenge free radicals. […] A further important aspect for the action of the antioxidants is the time in which this EC50 value is achieved. This time, measured in minutes, gives the TEC50 value, which allows a conclusion to be drawn on the rate at which these antioxidants scavenge free radicals. […] The unpaired electron results in a strong absorption band at 515 nm, and the solution has a dark-violet colour. In the presence of a free-radical scavenger, the electron is paired, the absorption disappears, and the decoloration proceeds stoichiometrically taking into account the electrons taken up. The absorbance is measured in a photometer. The anti-free-radical property of the substance to be tested is determined by measuring the concentration at which 50% of the 2,2-diphenyl-1-picrylhydrazyl employed have reacted with the free-radical scavenger. This concentration is expressed as EC50, a value which should be regarded as a substance property under the given measurement conditions. The substance investigated is compared with a standard (for example tocopherol). The EC50 value here is a measure of the capacity of the respective compound to scavenge free radicals. The lower the EC50 value, the higher the capacity to scavenge free radicals. […] Various concentrations of the compound to be tested are added to aliquots of this solution. The absorbance is measured in each case at 515 nm, 25° C. and 1 cm. […] The lower this value, the higher the corresponding free-radical-reducing activity. The reaction time needed to achieve this value is indicated in the value TEC50 (in minutes).

[2] = Oxidation in UV light in the presence of further antioxidants: beta-carotene emulsions on irradiation; assay type: physicochemical; settings: emulsion with 0.5% by weight beta-carotene and 4% by weight compound vs emulsion without compound, UV irradiation for 90 min, n=4
[3] = Oxidation in UV light: change in the UV spectrum on irradiation; assay type: physicochemical; settings: xenon lamp
Procedure: The curves stand for the unirradiated substance (exposed to 0 kJ/m^2), after irradiation for 15 min (exposure to 86 kJ/m^2), after irradiation for 65 min (exposure to 373 kJ/m^2), after irradiation for 235 min (exposure to 1349 kJ/m^2) and after irradiation for 405 min (exposure to 2325 kJ/m^2).

Row | Stability TEC50 (reaction time needed to achieve EC50) [1] [min] | Effect on beta-carotene degradation (absorption at Emax 440-480 nm) in emulsion [2] | Emax of the UV-A absorption formed on irradiation ([3]; after UV irradiation, 290-400 nm) | Change in UV absorption in the UV-A region on irradiation ([3]; after irradiation for 65 min (373 kJ/m^2), 95.69 W/m^2 in the range 290-400 nm, increases further on longer irradiation) | Compound
1 | 600 |  |  |  | CC(=O)Oc1c(C)c(C)c2c(c1C)CCC(C)(CCC[C@H](C)CCC[C@H](C)CCCC(C)C)O2 (stereo partly drawn) [alpha-Tocopheryl acetate]
2 | 600 | stabilises the beta-carotene | 320-340 nm | significantly increased UV absorption | CCCCC(CC)COC(=O)C(Cc1cc(OC)c(O)c(OC)c1)C(=O)OCC(CC)CCCC (stereo not drawn) [Hydroxy dimethoxybenzyl malonate, di-2-ethylhexyl 4-hydroxy-3,5-dimethoxy-benzylmalonate]
3 | 1200 |  |  |  | O=C1OC(C(O)CO)C(OP(=O)(O)O)=C1O (stereo not drawn) [Ascorbyl (2-O) phosphate]
4 | <5 |  |  |  | O=C1O[C@H]([C@@H](O)CO)C(O)=C1O [Ascorbic acid]
5 | 30 |  |  |  | Cc1c(C)c2c(c(C)c1O)CC[C@@](C)(CCC[C@H](C)CCC[C@H](C)CCCC(C)C)O2 [alpha-Tocopherol]

Row | Compound | Stability TEC50 (reaction time needed to achieve EC50) [1] [min] | Effect on beta-carotene degradation (absorption at Emax 440-480 nm) in emulsion [2] | Emax of the UV-A absorption formed on irradiation ([3]; after UV irradiation, 290-400 nm) | Change in UV absorption in the UV-A region on irradiation ([3]; after irradiation for 65 min (373 kJ/m^2), 95.69 W/m^2 in the range 290-400 nm, increases further on longer irradiation)
6 | CCCCC(CC)COC(=O)C(=Cc1cc(OC)c(O)c(OC)c1)C(=O)OCC(CC)CCCC (stereo not drawn) [Hydroxy dimethoxybenzylidene malonate, Di-2-ethylhexyl (4-hydroxy-3,5-dimethoxybenzylidene)malonate] | 1200 |  |  | 
